Source: US10029000B2, “Uses of IL-12 in hematopoiesis” (University of Southern California, priority 2003, dated 2018)

Tested on: lethally irradiated mice
Assay: Radioprotection assay: survival of mice after total body lethal irradiation
Type: in vivo, mice (C57BL/6J)
Conditions: cytokine given 1 hour post lethal dose radiation; for Survives: 4-5 mice per group
Procedure: Mice received recombinant murine IL-12 (100 ng/mouse (which is about 5 ug/kg on average), intravenous injection) before (24 hours) or after (1 hour) lethal dose radiation (1000 rad). Mice in control group received equal volume of PBS buffer. Survival rate were analyzed by Kaplan-Meier method and p value was calculated using Log Rank Test.
To determine the minimum effective radioprotective dose of IL-12, different dose of IL-112 were administered to lethally irradiated animals before (24 hours before) or post (within one hour) lethal dose ionizing radiation.
IL-12 was administrated to mice at different doses 24 hours before radiation to determine if there is a dose dependent relationship between the concentration of IL-12 administration and survival from lethal irradiation.
To further explore the relationship of IL-12 hematopoietic rescue effect as it may relate to the time of administration, IL-12 was administrated to lethally irradiated animals at different time before and after the radiation. The following time points were tested: −48, −36, −24, and −12 hours before radiation, or +1, +12, +24, and +36 hours post radiation.
A study was conducted to determine if the radioprotective effect of IL-12 administration is specific and INF- ? independent. […] Also, an assessment was made to determine if there was a synergistic effect between GM-CSF and IL-12.
Mice were provided with acid water for one week before the radioprotection assay. Cytokines, diluted in phosphate buffered saline (PBS), pH 7.4, were intravenously injected into mice before or after total body lethal irradiation (TBI) at the specified times. Control group mice were injected with PBS buffer. For TBI, mice were either exposed twice to ionizing irradiation ( ? -ray from Cesium 137) at 500 rad dose with a 3 hour interval, or one time at a dose of 1000 rad in a Gammacell 40 machine from Atomic Energy of Canada LTD (Kanafa, Ontario, Canada). The ? -ray exposure rate is 1 Gy/min. […] After irradiation, mice were given water containing antibiotics. For the survival curve, the Kaplan-Meier method was used. Each experiment was repeated three or more times.

GM-CSF: a cytokine to stimulate G and M cell production
Survival rate (%): 0%
radioprotective effect: did not show any radioprotective effect
Survives: 0

IL-18: cytokine that, like IL-12, can induce the release of interferon
Survival rate (%): 0%
radioprotective effect: no radioprotective effect
Survives: 0

B1: IL-23: a heterodimer (p19+p40), which shares the same subunit p40 with IL-12 (protein, UniProt Q9NPF7 20-189; P29460 23-328, looked up)
Interleukin-23 subunit alpha: RAVPGGSSPAWTQCQQLSQKLCTLAWSAHPLVGHMDLREEGDEETTNDVPHIQCGDGCDPQGLRDNSQFCLQRIHQGLIFYEKLLGSDIFTGEPSLLPDSPVGQLHASLLGLSQLLQPEGHHWETQQIPSLSPSQPWQRLLLRFKILRSLQAFVAVAARVFAHGAATLSP
Interleukin-12 subunit beta: IWELKKDVYVVELDWYPDAPGEMVVLTCDTPEEDGITWTLDQSSEVLGSGKTLTIQVKEFGDAGQYTCHKGGEVLSHSLLLLHKKEDGIWSTDILKDQKEPKNKTFLRCEAKNYSGRFTCWWLTTISTDLTFSVKSSRGSSDPQGVTCGAATLSAERVRGDNKEYEYSVECQEDSACPAAEESLPIEVMVDAVHKLKYENYTSSFFIRDIIKPDPPKNLQLKPLKNSRQVEVSWEYPDTWSTPHSYFSLTFCVQVQGKSKREKKDRVFTDKTSATVICRKNASISVRAQDRYYSSSWSEWASVPCS
Survival rate (%): 0%
radioprotective effect: no radioprotective effect
Survives: 0
